biological target: T1, CYP3A4 (Homo sapiens, UniProt P08684); assay: Cytochrome P450 inhibition assay (midazolam hydroxylation); format: in vitro ADME; settings: human, human liver microsomes, probe midazolam (hydroxylation to 1′-hydroxymidazolam), 10 μM test compound, midazolam at approximately its Km
T1 construct: pre-incubated with human liver microsomes and NADPH; from tissue; host or cells: human liver microsomes
Protocol: Compounds were tested for the potential to induce drug-drug interactions by inhibition of the cytochrome P450 3A4 isoform. The assay evaluated the metabolism of a specific marker substrate (CYP3A4, midazolam hydroxylation to 1′-hydroxymidazolam) in the presence or absence of 10 μM test compound. The concentration of the marker substrate was approximately its Km (Dixit et al., Biopharm. Drug Dispos. 2007, 28(5), 257-262). A specific inhibitor for the isoform was included in each run to validate the system. An appropriate positive control inhibitor was used. Mechanism-based inhibition was investigated where warranted using a classical method. To evaluate time-dependent inhibition, parallel samples may have been included where […] was pre-incubated with human liver microsomes and NADPH for 30 min prior to the addition of the P450 substrate. The percent inhibition of the pre-incubated and non-pre-incubated samples were compared as a preliminary evaluation of time-dependent inhibition.

T1 sequence (P08684 whole entry): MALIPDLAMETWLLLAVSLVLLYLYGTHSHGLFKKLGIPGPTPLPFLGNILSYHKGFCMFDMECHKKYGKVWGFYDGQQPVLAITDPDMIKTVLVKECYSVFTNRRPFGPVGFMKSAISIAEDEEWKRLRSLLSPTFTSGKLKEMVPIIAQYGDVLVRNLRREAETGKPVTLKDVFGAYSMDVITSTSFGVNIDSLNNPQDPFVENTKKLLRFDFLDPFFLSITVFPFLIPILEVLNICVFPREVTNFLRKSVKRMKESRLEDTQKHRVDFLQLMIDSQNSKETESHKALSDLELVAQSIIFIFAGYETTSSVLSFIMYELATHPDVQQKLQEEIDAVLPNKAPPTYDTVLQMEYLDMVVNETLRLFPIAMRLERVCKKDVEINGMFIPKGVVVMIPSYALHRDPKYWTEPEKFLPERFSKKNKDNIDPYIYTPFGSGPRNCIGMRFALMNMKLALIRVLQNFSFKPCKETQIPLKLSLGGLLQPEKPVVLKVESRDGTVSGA

inhibition at 10 µM | SMILES
97% | Cc1ccc(-c2nccs2)c(C(=O)N2CCC[C@@H](C)[C@H]2CNc2nc3cc(Cl)ccc3o2)c1 [Example A30, ((2S,3R)-2-(((5-Chlorobenzo[d]oxazol-2-yl)amino)methyl)-3-methylpiperidin-1-yl)(5-methyl-2-(thiazol-2-yl)phenyl)methanone]
98% | Cc1ccc(-c2cccnc2)c(C(=O)N2CCC[C@@H](C)[C@H]2CNc2nc3cc(Cl)ccc3o2)c1 [Example A31, ((2S,3R)-2-(((5-Chlorobenzo[d]oxazol-2-yl)amino)methyl)-3-methylpiperidin-1-yl)(5-methyl-2-(pyridin-3-yl)phenyl)methanone]
92% | Cc1ccc(-c2ccccn2)c(C(=O)N2CCC[C@@H](C)[C@H]2CNc2nc3cc(Cl)ccc3o2)c1 [Example A32, ((2S,3R)-2-(((5-Chlorobenzo[d]oxazol-2-yl)amino)methyl)-3-methylpiperidin-1-yl)(5-methyl-2-(pyridin-2-yl)phenyl)methanone]
98% | Cc1ccc(-n2ccnc2)c(C(=O)N2CCC[C@@H](C)[C@H]2CNc2nc3cc(Cl)ccc3o2)c1 [Example A33, (2-(1H-Imidazol-1-yl)-5-methylphenyl)((2S,3R)-2-(((5-chlorobenzo[d]oxazol-2-yl)amino)methyl)-3-methylpiperidin-1-yl)methanone]
99% | Cc1ccc(-c2cncs2)c(C(=O)N2CCC[C@@H](C)[C@H]2CNc2nc3cc(Cl)ccc3o2)c1 [Example A34, ((2S,3R)-2-(((5-Chlorobenzo[d]oxazol-2-yl)amino)methyl)-3-methylpiperidin-1-yl)(5-methyl-2-(thiazol-5-yl)phenyl)methanone]
92% | Cc1ccc(-c2nccc(C)n2)c(C(=O)N2CCC[C@@H](C)[C@H]2CNc2nc3cc(Cl)ccc3o2)c1 [Example A35, ((2S,3R)-2-(((5-Chlorobenzo[d]oxazol-2-yl)amino)methyl)-3-methylpiperidin-1-yl)(5-methyl-2-(4-methylpyrimidin-2-yl)phenyl)methanone]
97% | Cc1ccc(-c2ccnn2C)c(C(=O)N2CCC[C@@H](C)[C@H]2CNc2nc3cc(Cl)ccc3o2)c1 [Example A36, ((2S,3R)-2-(((5-Chlorobenzo[d]oxazol-2-yl)amino)methyl)-3-methylpiperidin-1-yl)(5-methyl-2-(1-methyl-1H-pyrazol-5-yl)phenyl)methanone]
96% | Cc1ccc(-c2ccc(C)nc2)c(C(=O)N2CCC[C@@H](C)[C@H]2CNc2nc3cc(Cl)ccc3o2)c1 [Example A38, ((2S,3R)-2-(((5-Chlorobenzo[d]oxazol-2-yl)amino)methyl)-3-methylpiperidin-1-yl)(5-methyl-2-(6-methylpyridin-3-yl)phenyl)methanone]
96% | COc1ncc(-c2ccc(C)cc2C(=O)N2CCC[C@@H](C)[C@H]2CNc2nc3cc(Cl)ccc3o2)cn1 [Example A39, ((2S,3R)-2-(((5-Chlorobenzo[d]oxazol-2-yl)amino)methyl)-3-methylpiperidin-1-yl) (2-(2-methoxypyrimidin-5-yl)-5-methylphenyl)methanone]
74% | Cc1ccc(NC[C@@H]2[C@H](C)CCCN2C(=O)c2cc(C)ccc2-n2nccn2)nc1 [Example A48, ((2S,3R)-3-Methyl-2-(((5-methylpyridin-2-yl)amino)methyl)piperidin-1-yl)(5-methyl-2-(2H-1,2,3-triazol-2-yl)phenyl)methanone]
76% | Cc1ccc(-c2ccc(F)cc2)c(C(=O)N2CCC[C@@H](C)[C@H]2CNc2ccc(C(F)(F)F)cn2)n1 [Example A73, (3-(4-Fluorophenyl)-6-methylpyridin-2-yl)((2S,3R)-3-methyl-2-(((5-(trifluoromethyl)pyridin-2-yl)amino)methyl)piperidin-1-yl)methanone]
74% | Cc1ccc(-c2cnn(C)c2)c(C(=O)N2CCC[C@@H](C)[C@H]2CNc2ccc(C(F)(F)F)cn2)n1 [Example A74, ((2S,3R)-3-Methyl-2-(((5-(trifluoromethyl)pyridin-2-yl)amino)methyl)piperidin-1-yl)(6-methyl-3-(1-methyl-H-pyrazol-4-yl)pyridin-2-yl)methanone]
67% | Cc1ccc(-n2nccn2)c(C(=O)N2CCC[C@@H](C)[C@H]2CNc2cccc(C#N)n2)c1 [Example A81, 6-((((2S,3R)-3-Methyl-1-(5-methyl-2-(2H-1,2,3-triazol-2-yl)benzoyl)piperidin-2-yl)methyl)amino)picolinonitrile]
97% | Cc1ccc(-c2cnn(C)c2)c(C(=O)N2CCC[C@@H](C)[C@H]2CNc2ncc(C(F)(F)F)cc2F)c1 [Example A83, ((2S,3R)-2-(((3-Fluoro-5-(trifluoromethyl)pyridin-2-yl)amino)methyl)-3-methylpiperidin-1-yl)(5-methyl-2-(1-methyl-1H-pyrazol-4-yl)phenyl)methanone]
95% | Cc1ccc(-c2cnn(C)c2)c(C(=O)N2CCC[C@@H](C)[C@H]2CNc2cccc(C#N)n2)c1 [Example A86, 6-((((2S,3R)-3-Methyl-1-(5-methyl-2-(1-methyl-1H-pyrazol-4-yl)benzoyl)piperidin-2-yl)methyl)amino)picolinonitrile]
92% | Cc1ccc(-n2nccn2)c(C(=O)N2CCC[C@@H](C)[C@H]2CNc2cccc(C(F)(F)F)n2)c1 [Example A89, ((2S,3R)-3-Methyl-2-(((6-(trifluoromethyl)pyridin-2-yl)amino)methyl)piperidin-1-yl)(5-methyl-2-(2H-1,2,3-triazol-2-yl)phenyl)methanone]
33% | Cc1ccc(-n2nccn2)c(C(=O)N2CCC[C@@H](C)[C@H]2CNc2ncccc2C#N)c1 [Example A90, 2-((((2S,3R)-3-Methyl-1-(5-methyl-2-(2H-1,2,3-triazol-2-yl)benzoyl)piperidin-2-yl)methyl)amino)nicotinonitrile]
99% | Cc1ccc(-c2cnn(C)c2)c(C(=O)N2CCC[C@@H](C)[C@H]2CNc2cccc(C(F)(F)F)n2)c1 [Example A94, ((2S,3R)-3-Methyl-2-(((6-(trifluoromethyl)pyridin-2-yl)amino)methyl)piperidin-1-yl)(5-methyl-2-(1-methyl-1H-pyrazol-4-yl)phenyl)methanone]
92% | Cc1ccc(-c2cnn(C)c2)c(C(=O)N2CCC[C@@H](C)[C@H]2CNc2ncc(F)cc2F)c1 [Example A96, ((2S,3R)-2-(((3,5-Difluoropyridin-2-yl)amino)methyl)-3-methylpiperidin-1-yl)(5-methyl-2-(1-methyl-1H-pyrazol-4-yl)phenyl)methanone]
98% | Cc1ccc(-c2cnn(C)c2)c(C(=O)N2CCC[C@@H](C)[C@H]2CNc2ncc(Cl)cc2F)c1 [Example A97, ((2S,3R)-2-(((5-Chloro-3-fluoropyridin-2-yl)amino)methyl)-3-methylpiperidin-1-yl)(5-methyl-2-(1-methyl-1H-pyrazol-4-yl)phenyl)methanone]
83% | COc1cccnc1NC[C@@H]1[C@H](C)CCCN1C(=O)c1cc(C)ccc1-c1cnn(C)c1 [Example A101, ((2S,3R)-2-(((3-Methoxypyridin-2-yl)amino)methyl)-3-methylpiperidin-1-yl)(5-methyl-2-(1-methyl-1H-pyrazol-4-yl)phenyl)methanone]

Source: patent US9440982B2 (Eolas Therapeutics, Inc., priority 2012, dated 2016)
